Source: paper PMC10937676, “Targeting the NTSR2/TrkB oncogenic pathway in chronic lymphocytic leukemia” (Scientific Reports, 2024)

Tests used:
MEC-1 cell line = experiment: Cytotoxicity on the MEC-1 cell line (Incucyte, Cytotox Dye); format: cell-based; details: 0 to 100 µM peptide, fluorescence monitored for 24 h, read-out: IC50, cell death
Protocol: The cytotoxicity of the peptides was initially assessed on the MEC-1 cell line to determine their IC50.
Figure 3 Cytotoxicity of the peptide in vitro and ex vivo. (A) Determination of the cytotoxicity of Pep and TAT-Pep peptides on the MEC-1 cell line. Increased concentrations (0 to 100 µM) of Pep and TAT-Pep were incubated with the MEC-1 cell line, and the number of dead cells was measured using the Incucyte live-cell imaging device with Cytotox Dye (green). Fluorescence was monitored for 24 h. (B) Measurement of the cytotoxicity of the TAT-Pep peptide on CLL-B cells from patients. Increased concentrations (0 to 30 µM) of TAT-Pep were incubated with CLL-B cells, and the number of dead cells was measured using the Incucyte live-cell imaging device with Cytotox Dye (green). Fluorescence was monitored for 48 h. […] In all analyses, the ‘Green Object Count/Phase Object Count’ ratio was determined using the Incucyte analysis software to obtain the percentage of dead cells. The area under the curve for each condition was then calculated, and they were compared using a t-test. […]
Cell viability and survival were monitored using the IncucyteS3 system (Sartorius), a live-cell imaging device enabling the tracking of fluorescence over set periods of time[41],[42]. […] The area under the curve for each condition was then calculated, and they were compared using a t-test. […]

BCL-XL mRNA = experiment: RTqPCR, mRNA level of BCL-XL in CLL-B cells; format: cell-based, human; details: CLL-B cells from 12 patients, overnight, 10 µM, 18S housekeeping gene
Text: Concerning anti-apoptotic protein expression, a decrease in anti-apoptotic proteins BCL-2; BCL-XL and MCL-1 was observed after TAT-Pep treatment of CLL-B cells, possibly as a consequence of the SRC kinase inactivation (Fig. 6A–C). To unveil whether the regulation mechanism behind the observed modifications was transcriptional or post-transcriptional, we evaluated the mRNA levels of all three anti-apoptotic proteins following peptide treatment. […] To further underline that the induction of cell death following TAT-Pep treatment involved apoptosis regulation pathways, we used B cells from six CLL patients and stained them with Annexin V in both TAT-Pep treated and untreated conditions. […]
Figure 6 The peptide lowers anti-apoptotic proteins levels. […] CLL-B cells from 12 patients were incubated overnight, with or without 10 µM of TAT-Pep, subsequently RNA was extracted from cell lysates and mRNA levels of BCL-2 (D); BCL-XL (E) and MCL-1 (F) were evaluated using RTqPCR; 18S was used as a housekeeping gene. (G) Increased concentrations (0 to 30 µM) of TAT-Pep were incubated with 20,000 CLL-B, and the number of Annexin V-positive cells was measured using the Incucyte live-cell imaging device. Fluorescence was monitored for 48 h. […] The ‘Green Object Count/Phase Object Count’ ratio was determined using the Incucyte analysis software to obtain the percentage of apoptotic cells. […]

[1] = test system: all tyrosine-phosphorylated proteins; experiment: Immunoblot, relative phosphorylation level of all tyrosine-phosphorylated proteins in CLL-B cells; format: cell-based, human; details: CLL-B cells from 10 patients, overnight, 10 µM
Protocol: Figure 5 The peptide inhibits kinase phosphorylation. CLL-B cells from 10 patients were incubated overnight, with or without 10 µM of TAT-Pep. Whole cell lysates were then prepared, and 10 µg of proteins were immunoblotted to assess the following parameters. (A) Relative phosphorylation level of SRC. (B) Relative phosphorylation level of AKT. (C) Relative phosphorylation level of LYN. (D) Relative phosphorylation level of BTK. (E) Relative phosphorylation level of all tyrosine-phosphorylated proteins.
Whole cell lysate proteins were extracted using RIPA buffer (Sigma-Aldrich) and sonication (VibraCell™). Plasma membrane proteins were recovered by using the Plasma Membrane Protein Extraction Kit (Abcam) according to the manufacturer’s instructions. A list of the antibodies used for immunoblotting is available in Supplementary Table 2. Bands were quantitatively assessed by densitometry using Fiji software. To evaluate the level of interaction of NTSR2 and TRKB we normalized the density of the TRKB bands by the density of the NTSR2 bands to obtain the relative amount of TRKB co-precipitated through NTSR2.

CLL-B cells = experiment: Apoptosis of CLL-B cells, Annexin V staining (Incucyte); format: cell-based, human; details: 20,000 CLL-B cells, 6 patients, technical triplicates, Annexin V Dye, 48 h, area under the curve
Text: Concerning anti-apoptotic protein expression, a decrease in anti-apoptotic proteins BCL-2; BCL-XL and MCL-1 was observed after TAT-Pep treatment of CLL-B cells, possibly as a consequence of the SRC kinase inactivation (Fig. 6A–C). To unveil whether the regulation mechanism behind the observed modifications was transcriptional or post-transcriptional, we evaluated the mRNA levels of all three anti-apoptotic proteins following peptide treatment. […] To further underline that the induction of cell death following TAT-Pep treatment involved apoptosis regulation pathways, we used B cells from six CLL patients and stained them with Annexin V in both TAT-Pep treated and untreated conditions. As shown on Fig. 6G, TAT-Pep treatment did induce apoptosis in CLL-B cells. […] However, at 5 µM, there was already a 1.9-fold increase in cell death compared to the control. It progressively rose to a 2.5-fold increase and a 3.6-fold increase for 10 µM and 30 µM, respectively.
Figure 6 The peptide lowers anti-apoptotic proteins levels. CLL-B cells from 10 patients were incubated overnight, with or without 10 µM of TAT-Pep. Whole cell lysates were then prepared, and 10 µg of proteins were immunoblotted to assess the following parameters. (A) Relative level of the anti-apoptotic protein BCL-2 in B-CLL. (B) Relative level of the anti-apoptotic protein BCL-XL and (C) relative level of the anti-apoptotic protein MCL-1. CLL-B samples from ten different patients were utilized for the analysis. CLL-B cells from 12 patients were incubated overnight, with or without 10 µM of TAT-Pep, subsequently RNA was extracted from cell lysates and mRNA levels of BCL-2 (D); BCL-XL (E) and MCL-1 (F) were evaluated using RTqPCR; 18S was used as a housekeeping gene. (G) Increased concentrations (0 to 30 µM) of TAT-Pep were incubated with 20,000 CLL-B, and the number of Annexin V-positive cells was measured using the Incucyte live-cell imaging device. Fluorescence was monitored for 48 h. […] The ‘Green Object Count/Phase Object Count’ ratio was determined using the Incucyte analysis software to obtain the percentage of apoptotic cells. The area under the curve for each condition was then calculated, and they were compared using a t-test.
Cell viability and survival were monitored using the IncucyteS3 system (Sartorius), a live-cell imaging device enabling the tracking of fluorescence over set periods of time[41],[42]. […] In all analyses, the ‘Green Object Count/Phase Object Count’ ratio was determined using the Incucyte analysis software to obtain the percentage of dead cells. The area under the curve for each condition was then calculated, and they were compared using a t-test. To evaluate proliferation, phase confluence was determined and normalized with t = 0 h using the Incucyte analysis software.

GRKKRRQRRRPPQNAVSSSFRKLFLEAVSSLCGEHHPMKRLPPKPQSPTLMDTASGFGDPPETRT [TAT-Pep]
IC50 (MEC-1 cell line): 10 µM | mRNA level of BCL-XL (in words) (BCL-XL mRNA): significantly lowered expression | global level of tyrosine phosphorylation (in words) [1]: general decrease in tyrosine phosphorylation | Annexin V-positive cells compared to the control (in words) (CLL-B cells; 2.5 µM): no significant cytotoxicity was observed | increase in cell death (Annexin V-positive cells) compared to the control (CLL-B cells; 5 µM): 1.9 fold | increase in cell death (Annexin V-positive cells) compared to the control (CLL-B cells; 10 µM): 2.5 fold | increase in cell death (Annexin V-positive cells) compared to the control (CLL-B cells; 30 µM): 3.6 fold
